Measurements as given in PMC5882637, “Ethanol potentiates the genotoxicity of the food-derived mammary carcinogen PhIP in human estrogen receptor-positive mammary cells: mechanistic support for lifestyle factors (cooked red meat and ethanol) associated with mammary cancer” (Archives of Toxicology, 2018).

Tests used:
[1] = test system: MDA-MB-231 cells; test: Micronucleus (MN) assay, MDA-MB-231
Method: (§1) Cells were cultured routinely in 75-cm^2 flasks in a humidified incubator at 37 °C, 5% CO2.
(§2) Briefly, cells were seeded at a density of 5 × 10^4 cells per well in 24-well plate. Cells were treated with PhIP or ethanol as detailed previously. Following treatment with chemicals and harvesting (48 h), cells were trypsinised, the cell concentration adjusted to 2 × 10^5 and re-suspended in serum-free R0 (serum-free media) with 2% pluronic acid medium (GIBCO, Life technologies) and cytotoxicity was determined by counting cells in a haemocytometer with TrypanBlue exclusion (GIBCO, Life technologies). For the MN assay, cells were spread on a microscope slide using a cytospin. Cells at a density of 2 × 10^4 cells per slide were fixed with 100% methanol and stained for 60 s with acridine orange (0.1 mg ml^−1 dissolved in PBS, Sigma-Aldrich). Frequency of MN was scored in 2000 cells per sample and three biological replicates were performed per treatment.

[2] = test system: STAT3 mRNA expression; test: qPCR STAT3 mRNA, MCF-7; type: cell-based, human; details: co-treatment with PhIP, Fig. 4b
Method: as §1
(§3) Following treatment, cells were lysed using TRIZOL reagent and chloroform (0.2 ml) was added in each sample and centrifuged 12,000xg (10 min 2–8 °C). The upper aqueous phase was transferred to a fresh tube and 5 µg of RNase-free glycogen (as carrier to aqueous phase) and 0.5 ml of isopropyl alcohol was added to precipitate RNA and incubated (37 °C, 10 min). Following incubation, lysates were centrifuged at 12,000xg (10 min 2–8 °C). The gel-like pellet was washed with ethanol and re-dissolved in RNase-free water with heating (55–60 °C). Extracted RNA was quantified by UV spectroscopy (UV–VIS Nano-spectrophotometer, Implen, Essex, UK) and purity was assessed from 260/280 nm and 260/230 nm ratios. Reverse transcription (RT) of extracted RNA (100–500 ng) was completed according to manufacturer’s protocol (Invitrogen) and qPCR was performed using predesigned Taqman gene expression assays and FAST PCR master mix (Taqman, Applied Biosystems, Life technologies) using a StepOnePlus fast real-time PCR system (Applied Biosystems, Life technologies). Target gene expression was normalized to GAPDH and quantified using the delta-Ct method (Livak and Schmittgen [2001]).

[3] = test system: CYP2E1 mRNA expression; test: RT-qPCR CYP2E1 mRNA, MCF-7
Method: as §1
For STAT3 inhibition, cells were co-treated for 24 h with PhIP and 25 µM STAT3 inhibitor (STAT3 inhibitor VIII 5, 15 diphenylporphyrin, Millipore, Feltham, UK). STAT3 inhibitor was dissolved in DMSO. For ethanol treatment, media was supplemented with different concentrations of ethanol (10 mM-100 mM, Sigma-Aldrich) and was added to the cells. In some experiments, N-acetyl-cysteine (NAC) (10 mM, Sigma-Aldrich) diluted in phosphate-buffered saline (PBS) was added to incubations.
as §3

[4] = test system: CYP1A2 mRNA expression; test: RT-qPCR CYP1A2 mRNA, MCF-7; details: Fig. 2a
Method: as §1, §3

[5] = test system: MCF-7 cells; test: Micronucleus (MN) assay, MCF-7
Method: as §1, §2

[6] = test system: CYP1B1 mRNA expression; test: RT-qPCR CYP1B1 mRNA, MCF-7; details: MCF-7
Method: as §1, §3

[7] = test system: CYP1A2 mRNA expression; test: RT-qPCR CYP1A2 mRNA, MDA-MB-231; details: Fig. 2c
Method: as §1, §3

[8] = test system: CYP1B1 mRNA expression; test: RT-qPCR CYP1B1 mRNA, MDA-MB-231; details: 24 h
Method: as §1, §3

[9] = test system: MCF-7 cells; test: Cytotoxicity (cell counting, TrypanBlue exclusion), MCF-7; details: Fig. 1a
Method: as §1, §2

[10] = test system: MDA-MB-231 cells; test: Cytotoxicity (cell counting, TrypanBlue exclusion), MDA-MB-231; details: Fig. 1b
Method: as §1, §2

[11] = test system: intracellular ROS in MCF-7 cells; test: ROS assay (carboxy-DCF-DA), MCF-7; type: cell-based, human; details: Fig. 5b
Method: STAT3 inhibitor was dissolved in DMSO.
Production of reactive oxygen species (ROS) was measured using 2′,7′–dichlorofluorescein diacetate method. Carboxy-2′,7′-dichlorofluorescein diacetate (carboxy-DCF-DA) is taken up by viable cells and cleaved by endogenous esterases to the nonfluorescent derivative, reduced carboxy-dichlorofluorescein (carboxy-DCFH). This product is retained in the cytosol where it can be oxidized by intracellular ROS to the highly fluorescent product, oxidised carboxy-dichlorofluorescein (carboxy-DCF). The intensity of fluorescence is proportional to intracellular ROS levels. MCF-7 cells (2 × 10^4/well) were seeded into 24-well plates in 1% FBS and allowed to attach overnight. Cells were treated with PhIP for 24 h and then treated with Carboxy-DCFDA (20 µL, 30 µM) in media containing 1% FBS (1 ml) and incubated for 30 min at 37 °C, washed with PBS and new media (1% FBS) was added. Fluorescent measurements (excitation at 485 nm and emission at 520 nm) were then taken from 10 min to 24 h using a fluorescence plate reader (BMG POLARstar Galaxy Labtech, Ortenberg, Germany). The concentration of DMSO (0.2%) was identical in all treatments and had no effect on ROS production at this concentration.

`C[C@]12CC[C@@H]3c4ccc(O)cc4C[C@@H](CCCCCCCCC[S+]([O-])CCCC(F)(F)C(F)(F)F)[C@H]3[C@@H]1CC[C@@H]2O` (some centres unmarked) [ICI, Fulvestrant, reference compound] was tested, and the “effect of ICI co-incubation on MN induction by etoposide” value ([1]; Fig. 1) was “not affected”, the “effect of ER antagonist (ICI) on DNA damaging ability of PhIP” value ([1]; Fig. 1d) was “no change” and the “effect of ICI on PhIP-mediated STAT3 increase” value [2] was “inhibited”. The “effect of ICI on CYP2E1 expression (PhIP co-treatment)” value ([3]; ICI 182,780 1 µM, Fig. 4c) was “significantly blocked”, the “effect of ICI on PhIP upregulation of CYP1A2 mRNA” value [4] was “unaffected” and the “effect of ICI co-incubation on MN induction by etoposide” value ([5]; Fig. 1) was “not affected”. For the same compound, the “effect of ICI on E2-mediated genotoxicity” value ([5]; Fig. 1) was “attenuated”, the “effect of ICI co-treatment on PhIP MN formation” value ([5]; p < 0.001, Fig. 1c) was “significantly attenuated” and the “effect of concurrent ICI on PhIP-mediated induction of CYP1B1” value ([6]; 24 h, p = 0.05) was “significantly inhibited”. For the same compound, the “effect of ICI co-treatment on E2-upregulated CYP1B1 expression” value ([6]; E2 1 µM, Fig. 2b) was “attenuated significantly”, the “effect of ICI on PhIP upregulation of CYP1A2 mRNA” value [7] was “unaffected” and the “effect of concurrent ICI on PhIP-mediated induction of CYP1B1” value [8] was “in MCF-7 cells only”.
With `C[C@]12CC[C@@H]3c4ccc(O)cc4CC[C@H]3[C@@H]1CC[C@@H]2O` [E2, Estradiol] the “change in cell survival following treatment” value [9] was “No significant change”, the “change in cell survival following treatment” value [10] was “No significant change” and the “CYP1A2 mRNA expression vs vehicle control” value ([4]; 24 h, E2 1 µM) was “No significant change”. The “CYP1B1 mRNA expression vs vehicle control” value ([6]; 24 h, E2 1 µM, Fig. 2b) was “upregulated” and the “CYP1A2 mRNA expression vs vehicle control” value ([7]; 24 h, E2 1 µM) was “No significant change”.
With `C1=Cc2nc1cc1ccc([nH]1)c(-c1ccccc1)c1nc(cc3ccc([nH]3)c2-c2ccccc2)C=C1` [STAT3 inhibitor, 5, 15 diphenylporphyrin, reference compound] the “effect of STAT3 inhibitor on CYP2E1 mRNA upregulation by PhIP” value ([3]; inhibitor 25 µM co-treated with PhIP 24 h, Fig. 4a) was “completely abolished”, the “effect of STAT3 inhibitor on H2O2-induced ROS” value [11] was “failed to attenuate” and the “effect of STAT3 inhibitor on ROS production by PhIP” value ([11]; PhIP 100 µM 24 h, inhibitor 25 µM) was “significantly reduced”.
